From paper PMC11284788, “NN1213 – A Potent, Long-Acting, and Selective Analog of Human Amylin” (Journal of Medicinal Chemistry, 2024)
Values after ≈ are worked out from the molar mass of the structure shown. Numbered stars: 1 amine (or outer) side, 2 acyl side, 3 side chain; on linkers, the order of the positions; unused ones are H or OH. Bridge positions count the residues as written; N and C are the ends. Side chains are listed from the residue outwards. Peptide text beside a SMILES is read from it. * marks the point of attachment. C20 diacid = O=C(O)CCCCCCCCCCCCCCCCCCC(=O)*; γGlu = O=C(O)[C@H](CCC(=O)[*:2])N[*:1]

What was measured:
[1] = molecular target: T1, hAMY3R (Homo sapiens, UniProt O60896+P30988); test: scintillation proximity binding assay, hAMY3R membranes; parameters: expressed in transfected cells; host or cells: BHK tk-ts 13, transient co-transfection; membranes for the SPA, whole cells for the species-specific assays; settings: ratio of binding IC50 values
T1 sequence (P30988 25-474): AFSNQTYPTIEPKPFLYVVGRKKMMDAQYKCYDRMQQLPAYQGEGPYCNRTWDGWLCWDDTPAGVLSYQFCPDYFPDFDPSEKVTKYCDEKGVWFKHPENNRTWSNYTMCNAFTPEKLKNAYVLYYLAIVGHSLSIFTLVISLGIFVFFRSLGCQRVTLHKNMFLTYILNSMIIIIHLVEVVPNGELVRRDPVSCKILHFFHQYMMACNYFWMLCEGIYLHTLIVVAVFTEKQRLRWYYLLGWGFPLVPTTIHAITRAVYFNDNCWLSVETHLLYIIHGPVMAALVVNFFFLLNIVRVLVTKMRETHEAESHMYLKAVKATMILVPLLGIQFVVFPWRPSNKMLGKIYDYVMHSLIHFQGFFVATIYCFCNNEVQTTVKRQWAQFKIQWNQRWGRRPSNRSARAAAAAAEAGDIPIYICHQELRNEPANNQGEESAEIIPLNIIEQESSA
T1 sequence (O60896 24-148 partner): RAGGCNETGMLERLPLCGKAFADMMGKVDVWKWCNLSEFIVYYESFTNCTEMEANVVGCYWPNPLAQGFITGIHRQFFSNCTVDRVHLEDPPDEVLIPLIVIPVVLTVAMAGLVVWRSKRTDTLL

[2] = molecular target: T1, hAMY3R; test: cAMP-responsive element luciferase reporter assay, human AMY3R; type: cell-based; parameters: expressed in transfected cells; settings: ratio of luciferase EC50 values
[3] = Solubility versus pH profile

ratio hCTR/hAMY3R [1]: 31
ratio hCTR/hAMY3R [2]: 15
solubility kinetic ([3]; bis-tris-propane buffer, pH 6, aqueous buffer): ≥ 200 µM
solubility kinetic ([3]; bis-tris-propane buffer, pH 6.5, aqueous buffer): ≥ 200 µM
solubility kinetic ([3]; bis-tris-propane buffer, pH 7, aqueous buffer): ≥ 200 µM
solubility kinetic ([3]; bis-tris-propane buffer, pH 7.5, aqueous buffer): 183 µM (≈ 812 µg/mL)
solubility kinetic ([3]; bis-tris-propane buffer, pH 8, aqueous buffer): 109 µM (≈ 484 µg/mL)
solubility kinetic ([3]; lactate buffer, pH 4, aqueous buffer): ≥ 200 µM
solubility kinetic ([3]; lactate buffer, pH 5, aqueous buffer): ≥ 200 µM
Compound: CC[C@H](C)[C@H](NC(=O)[C@H](C)NC(=O)CNC(=O)[C@H](Cc1ccccc1)NC(=O)[C@H](CC(N)=O)NC(=O)[C@@H]1CCCN1C(=O)[C@H](CO)NC(=O)[C@H](CO)NC(=O)[C@H](Cc1c[nH]cn1)NC(=O)[C@H](CCCNC(=N)N)NC(=O)[C@H](CC(C)C)NC(=O)[C@H](Cc1ccccc1)NC(=O)[C@H](CCC(=O)O)NC(=O)[C@H](C)NC(=O)[C@H](CC(C)C)NC(=O)[C@H](CCCNC(=N)N)NC(=O)[C@H](CCC(N)=O)NC(=O)[C@@H](NC(=O)[C@H](C)NC(=O)[C@@H]1CSSC[C@H](NC(=O)[C@@H](N)CCCCNC(=O)CC[C@H](NC(=O)CCCCCCCCCCCCCCCCCCC(=O)O)C(=O)O)C(=O)N[C@@H](CC(N)=O)C(=O)N[C@@H]([C@@H](C)O)C(=O)N[C@@H](C)C(=O)N[C@@H]([C@@H](C)O)C(=O)N1)[C@@H](C)O)C(=O)N1CCC[C@H]1C(=O)N[C@@H](CO)C(=O)N[C@@H](CO)C(=O)N[C@H](C(=O)N[C@@H](CC(N)=O)C(=O)N[C@H](C(=O)NCC(=O)N[C@@H](CO)C(=O)N[C@@H](CCCNC(=N)N)C(=O)N[C@H](C(=O)N[C@@H](Cc1ccc(O)cc1)C(N)=O)[C@@H](C)O)C(C)C)[C@@H](C)O [Peptide 20] (H-K([γGlu-C20 diacid])CNTATCATQRLAEFLRHSSPNFGAIPSSTNVGSRTY-NH2; disulfide 2-7)
